Legend:
Settings in all cases: 1 mM ATP; inhibitor
AURKA/AURA = AURKA/AURA (Homo sapiens, UniProt O14965)
Procedure: (§1) Kinase selectivity panel Kinome profiling was conducted by AssayQuant Technologies (Marlboro, MA) using Sox chromophore technology and Sox-based peptide substrates developed for human kinases in a 384-well format. Compounds were tested at 1 µM in the presence of 1 mM ATP.

BRSK1 = BRSK1 (Homo sapiens, UniProt Q8TDC3)
Procedure: as §1

CDC42BPB/MRCKB = CDC42BPB/MRCKB (Homo sapiens, UniProt Q9Y5S2)
Procedure: as §1

CDK18 = CDK18 (Homo sapiens, UniProt Q07002)
Procedure: as §1

CSNK1G1/CK1G1 = CSNK1G1/CK1G1 (Homo sapiens, UniProt Q9HCP0)
Procedure: as §1

DAPK1 = DAPK1 (Homo sapiens, UniProt P53355)
Procedure: as §1

DAPK3 = DAPK3 (Homo sapiens, UniProt O43293)
Procedure: as §1

DCLK1/DCAML1 = DCLK1/DCAML1 (Homo sapiens, UniProt O15075)
Procedure: as §1

DYRK3 = DYRK3 (Homo sapiens, UniProt O43781)
Sequence of DYRK3 (O43781 whole entry): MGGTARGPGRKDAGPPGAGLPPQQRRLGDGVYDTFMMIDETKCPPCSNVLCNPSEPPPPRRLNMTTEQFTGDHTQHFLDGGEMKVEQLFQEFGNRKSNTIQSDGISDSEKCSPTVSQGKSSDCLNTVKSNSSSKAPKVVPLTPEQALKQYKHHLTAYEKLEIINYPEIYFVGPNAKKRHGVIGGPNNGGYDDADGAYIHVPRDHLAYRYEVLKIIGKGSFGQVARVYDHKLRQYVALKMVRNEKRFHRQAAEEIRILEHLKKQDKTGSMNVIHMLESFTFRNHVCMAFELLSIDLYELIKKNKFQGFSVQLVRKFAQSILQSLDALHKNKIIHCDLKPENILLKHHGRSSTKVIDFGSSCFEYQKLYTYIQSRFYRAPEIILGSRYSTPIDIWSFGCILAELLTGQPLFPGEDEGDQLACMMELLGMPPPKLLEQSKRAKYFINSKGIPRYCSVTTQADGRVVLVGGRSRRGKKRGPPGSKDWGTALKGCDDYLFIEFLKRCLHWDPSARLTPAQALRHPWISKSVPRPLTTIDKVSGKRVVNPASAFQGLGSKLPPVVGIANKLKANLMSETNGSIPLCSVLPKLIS
Procedure: as §1

ERN2 = ERN2 (Homo sapiens, UniProt Q76MJ5)
Procedure: as §1

GRK5 = GRK5 (Homo sapiens, UniProt P34947)
Sequence of GRK5 (P34947 whole entry): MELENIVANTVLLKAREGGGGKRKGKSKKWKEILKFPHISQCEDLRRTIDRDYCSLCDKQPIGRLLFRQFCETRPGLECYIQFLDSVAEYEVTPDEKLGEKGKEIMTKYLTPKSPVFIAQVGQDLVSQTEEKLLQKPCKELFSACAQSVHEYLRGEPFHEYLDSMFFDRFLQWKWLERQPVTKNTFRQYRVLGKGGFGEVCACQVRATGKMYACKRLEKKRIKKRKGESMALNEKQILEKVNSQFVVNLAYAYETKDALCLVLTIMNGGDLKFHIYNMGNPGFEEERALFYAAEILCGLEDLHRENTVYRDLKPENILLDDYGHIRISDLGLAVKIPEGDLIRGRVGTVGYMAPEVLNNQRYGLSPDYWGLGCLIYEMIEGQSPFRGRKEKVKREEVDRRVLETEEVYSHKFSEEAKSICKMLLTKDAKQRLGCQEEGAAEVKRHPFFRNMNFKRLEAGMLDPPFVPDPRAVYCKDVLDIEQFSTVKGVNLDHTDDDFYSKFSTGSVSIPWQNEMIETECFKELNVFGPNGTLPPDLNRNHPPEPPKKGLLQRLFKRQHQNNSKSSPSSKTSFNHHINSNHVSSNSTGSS
Procedure: as §1

HASPIN = HASPIN (Homo sapiens, UniProt Q8TF76)
Procedure: as §1

HIPK1 = HIPK1 (Homo sapiens, UniProt Q86Z02)
Sequence of HIPK1 (Q86Z02 whole entry): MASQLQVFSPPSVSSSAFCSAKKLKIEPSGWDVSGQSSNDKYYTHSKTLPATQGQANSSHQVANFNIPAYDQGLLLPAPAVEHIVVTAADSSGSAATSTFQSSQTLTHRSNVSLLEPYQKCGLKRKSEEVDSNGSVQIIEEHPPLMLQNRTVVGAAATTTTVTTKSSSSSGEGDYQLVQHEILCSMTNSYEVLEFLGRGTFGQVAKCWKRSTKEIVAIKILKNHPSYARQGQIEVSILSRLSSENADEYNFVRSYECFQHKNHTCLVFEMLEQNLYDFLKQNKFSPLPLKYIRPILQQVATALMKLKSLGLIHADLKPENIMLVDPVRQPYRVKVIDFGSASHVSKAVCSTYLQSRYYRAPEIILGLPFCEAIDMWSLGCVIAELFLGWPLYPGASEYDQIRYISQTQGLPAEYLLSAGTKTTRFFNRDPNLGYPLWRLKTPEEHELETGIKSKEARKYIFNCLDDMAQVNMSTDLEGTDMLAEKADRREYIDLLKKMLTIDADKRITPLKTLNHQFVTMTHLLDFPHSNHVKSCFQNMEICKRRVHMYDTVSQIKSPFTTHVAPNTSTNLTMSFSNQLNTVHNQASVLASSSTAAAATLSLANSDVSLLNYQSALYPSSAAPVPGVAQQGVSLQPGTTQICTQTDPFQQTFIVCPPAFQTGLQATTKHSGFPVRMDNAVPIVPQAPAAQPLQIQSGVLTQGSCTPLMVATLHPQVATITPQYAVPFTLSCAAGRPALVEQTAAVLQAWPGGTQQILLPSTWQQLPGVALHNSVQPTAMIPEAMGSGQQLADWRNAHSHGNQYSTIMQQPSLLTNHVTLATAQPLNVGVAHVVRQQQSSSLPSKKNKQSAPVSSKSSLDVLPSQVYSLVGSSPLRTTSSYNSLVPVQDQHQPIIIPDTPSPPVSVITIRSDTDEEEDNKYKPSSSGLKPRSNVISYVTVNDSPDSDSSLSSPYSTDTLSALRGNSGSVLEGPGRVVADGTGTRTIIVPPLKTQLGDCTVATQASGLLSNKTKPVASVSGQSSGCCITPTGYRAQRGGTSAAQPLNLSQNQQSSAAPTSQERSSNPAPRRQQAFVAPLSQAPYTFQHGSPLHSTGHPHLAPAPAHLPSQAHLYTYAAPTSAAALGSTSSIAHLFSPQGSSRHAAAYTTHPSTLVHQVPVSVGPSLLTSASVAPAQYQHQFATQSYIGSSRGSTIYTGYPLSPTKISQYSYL
Procedure: as §1

IRAK4 = IRAK4 (Homo sapiens, UniProt Q9NWZ3)
Procedure: as §1

ITK = ITK (Homo sapiens, UniProt Q08881)
Procedure: as §1

KSR2 = KSR2 (Homo sapiens, UniProt Q6VAB6)
Procedure: as §1

MAK = MAK (Homo sapiens, UniProt P20794)
Procedure: as §1

MAP3K14 = MAP3K14 (Homo sapiens, UniProt Q99558)
Procedure: as §1

MAP3K3 = MAP3K3 (Homo sapiens, UniProt Q99759)
Procedure: as §1

MAP3K6/ASK2 = MAP3K6/ASK2 (Homo sapiens, UniProt O95382)
Procedure: as §1

MAPK11/P38B = MAPK11/P38B (Homo sapiens, UniProt Q15759)
Procedure: as §1

MAPK3/ERK1 = MAPK3/ERK1 (Homo sapiens, UniProt P27361)
Procedure: as §1

MAPKAPK5/MK5 = MAPKAPK5/MK5 (Homo sapiens, UniProt Q8IW41)
Procedure: as §1

MARK3 = MARK3 (Homo sapiens, UniProt P27448)
Procedure: as §1

MUSK = MUSK (Homo sapiens, UniProt O15146)
Procedure: as §1

NTRK2/TRKB = NTRK2/TRKB (Homo sapiens, UniProt Q16620)
Procedure: as §1

PAK1 = PAK1 (Homo sapiens, UniProt Q13153)
Procedure: as §1

PAK2 = PAK2 (Homo sapiens, UniProt Q13177)
Procedure: as §1

PKN1 = PKN1 (Homo sapiens, UniProt Q16512)
Procedure: as §1

PLK1 = PLK1 (Homo sapiens, UniProt P53350)
Procedure: as §1

PLK4 = PLK4 (Homo sapiens, UniProt O00444)
Procedure: as §1

PRKD3 = PRKD3 (Homo sapiens, UniProt O94806)
Procedure: as §1

PRKG1 = PRKG1 (Homo sapiens, UniProt Q13976)
Procedure: as §1

SLK = SLK (Homo sapiens, UniProt Q9H2G2)
Procedure: as §1

SRPK3/MSSK1 = SRPK3/MSSK1 (Homo sapiens, UniProt Q9UPE1)
Sequence of SRPK3/MSSK1 (Q9UPE1 whole entry): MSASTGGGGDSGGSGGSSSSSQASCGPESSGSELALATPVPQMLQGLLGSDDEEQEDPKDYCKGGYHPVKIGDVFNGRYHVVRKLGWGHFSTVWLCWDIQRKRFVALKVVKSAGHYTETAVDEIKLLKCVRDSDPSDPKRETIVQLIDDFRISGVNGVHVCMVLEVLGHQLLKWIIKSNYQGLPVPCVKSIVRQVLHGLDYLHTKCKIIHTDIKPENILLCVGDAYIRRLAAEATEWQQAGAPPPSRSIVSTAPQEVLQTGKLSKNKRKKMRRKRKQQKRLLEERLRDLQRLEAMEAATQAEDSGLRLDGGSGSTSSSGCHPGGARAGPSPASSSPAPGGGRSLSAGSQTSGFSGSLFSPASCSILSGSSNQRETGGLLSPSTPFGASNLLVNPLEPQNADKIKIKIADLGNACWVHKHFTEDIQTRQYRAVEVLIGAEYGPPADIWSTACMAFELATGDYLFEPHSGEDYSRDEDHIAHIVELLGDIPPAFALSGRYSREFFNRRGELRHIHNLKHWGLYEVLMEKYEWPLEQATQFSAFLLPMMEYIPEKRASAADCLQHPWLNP
Procedure: as §1

STK3/MST2 = STK3/MST2 (Homo sapiens, UniProt Q13188)
Procedure: as §1

TNK2/ACK = TNK2/ACK (Homo sapiens, UniProt Q07912)
Sequence of TNK2/ACK (Q07912 whole entry): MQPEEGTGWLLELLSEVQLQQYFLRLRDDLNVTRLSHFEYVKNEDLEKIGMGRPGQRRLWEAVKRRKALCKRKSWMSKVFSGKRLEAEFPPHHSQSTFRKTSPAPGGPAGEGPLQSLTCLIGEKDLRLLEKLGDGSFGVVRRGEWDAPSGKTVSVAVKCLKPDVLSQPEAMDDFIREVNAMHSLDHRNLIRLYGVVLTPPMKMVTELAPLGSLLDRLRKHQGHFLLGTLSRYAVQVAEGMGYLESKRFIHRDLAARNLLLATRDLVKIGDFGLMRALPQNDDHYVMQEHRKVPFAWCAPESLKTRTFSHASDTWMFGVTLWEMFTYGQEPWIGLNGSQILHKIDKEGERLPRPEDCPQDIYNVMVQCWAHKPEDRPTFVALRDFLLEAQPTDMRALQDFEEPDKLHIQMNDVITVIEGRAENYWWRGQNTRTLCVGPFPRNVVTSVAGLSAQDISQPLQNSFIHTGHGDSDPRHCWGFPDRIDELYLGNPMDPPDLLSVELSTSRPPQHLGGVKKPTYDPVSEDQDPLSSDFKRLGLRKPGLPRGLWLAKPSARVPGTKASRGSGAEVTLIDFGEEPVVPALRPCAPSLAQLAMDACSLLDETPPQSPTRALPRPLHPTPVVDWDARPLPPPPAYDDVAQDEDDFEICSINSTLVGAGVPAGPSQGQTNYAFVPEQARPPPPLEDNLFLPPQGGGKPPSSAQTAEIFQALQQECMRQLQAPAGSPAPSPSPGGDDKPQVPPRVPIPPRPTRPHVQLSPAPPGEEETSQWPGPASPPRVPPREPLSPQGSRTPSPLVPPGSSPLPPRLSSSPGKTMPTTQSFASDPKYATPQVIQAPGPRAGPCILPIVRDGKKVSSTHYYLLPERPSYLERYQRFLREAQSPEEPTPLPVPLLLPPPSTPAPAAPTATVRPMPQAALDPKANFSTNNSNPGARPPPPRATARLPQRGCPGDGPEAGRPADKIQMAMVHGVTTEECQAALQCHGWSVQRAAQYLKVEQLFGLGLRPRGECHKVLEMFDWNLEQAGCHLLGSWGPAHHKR
Procedure: as §1

ULK1 = ULK1 (Homo sapiens, UniProt O75385)
Sequence of ULK1 (O75385 whole entry): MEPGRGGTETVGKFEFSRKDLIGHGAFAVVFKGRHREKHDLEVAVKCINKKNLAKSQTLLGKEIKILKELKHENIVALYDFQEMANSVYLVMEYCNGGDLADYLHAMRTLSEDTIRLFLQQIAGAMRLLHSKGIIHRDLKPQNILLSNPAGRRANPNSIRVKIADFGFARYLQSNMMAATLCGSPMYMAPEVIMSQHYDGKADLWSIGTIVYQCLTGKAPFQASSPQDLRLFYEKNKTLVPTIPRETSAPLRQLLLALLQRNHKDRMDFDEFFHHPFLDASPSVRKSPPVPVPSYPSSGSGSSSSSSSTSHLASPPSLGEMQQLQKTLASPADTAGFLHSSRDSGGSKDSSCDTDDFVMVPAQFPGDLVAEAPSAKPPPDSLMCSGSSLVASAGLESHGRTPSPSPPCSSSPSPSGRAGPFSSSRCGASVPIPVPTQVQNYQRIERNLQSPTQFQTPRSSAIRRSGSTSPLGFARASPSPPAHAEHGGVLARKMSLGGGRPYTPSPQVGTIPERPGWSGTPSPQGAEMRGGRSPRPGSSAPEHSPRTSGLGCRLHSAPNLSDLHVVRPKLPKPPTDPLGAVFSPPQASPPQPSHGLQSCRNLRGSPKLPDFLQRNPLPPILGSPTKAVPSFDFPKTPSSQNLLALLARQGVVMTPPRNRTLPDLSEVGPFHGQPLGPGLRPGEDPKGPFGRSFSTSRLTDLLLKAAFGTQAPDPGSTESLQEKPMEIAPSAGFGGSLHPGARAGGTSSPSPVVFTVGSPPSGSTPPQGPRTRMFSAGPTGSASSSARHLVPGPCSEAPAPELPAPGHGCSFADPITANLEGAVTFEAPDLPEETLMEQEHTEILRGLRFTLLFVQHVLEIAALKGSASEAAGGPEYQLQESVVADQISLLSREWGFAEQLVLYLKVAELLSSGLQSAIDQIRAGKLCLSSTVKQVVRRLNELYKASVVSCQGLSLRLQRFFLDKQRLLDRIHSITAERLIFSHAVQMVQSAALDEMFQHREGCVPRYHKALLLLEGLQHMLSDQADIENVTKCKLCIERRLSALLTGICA
Procedure: as §1

ZNF33A/ZAK = target: T1, ZNF33A/ZAK (Homo sapiens, UniProt Q9NYL2)
T1 construct: gene MAP3K20
Procedure: as §1

SMILES: C=CC(=O)N1CCC[C@@H](n2nc(-c3ccc(Oc4ccccc4)cc3)c3c(N)ncnc32)C1 [Ibrutinib]
- 1 µM GBD00276 (ibrutinib), % inhibition (AURKA/AURA): 11.52%
- 1 µM GBD00276 (ibrutinib), % inhibition (BRSK1): 2.387%
- 1 µM GBD00276 (ibrutinib), % inhibition (CDC42BPB/MRCKB): -15.12%
- 1 µM GBD00276 (ibrutinib), % inhibition (CDK18): 6.584%
- 1 µM GBD00276 (ibrutinib), % inhibition (CSNK1G1/CK1G1): 4.449%
- 1 µM GBD00276 (ibrutinib), % inhibition (DAPK1): 0.3006%
- 1 µM GBD00276 (ibrutinib), % inhibition (DAPK3): -3.598%
- 1 µM GBD00276 (ibrutinib), % inhibition (DCLK1/DCAML1): -29.46%
- 1 µM GBD00276 (ibrutinib), % inhibition (DYRK3): 15.88%
- 1 µM GBD00276 (ibrutinib), % inhibition (ERN2): 3.601%
- 1 µM GBD00276 (ibrutinib), % inhibition (GRK5): -10.93%
- 1 µM GBD00276 (ibrutinib), % inhibition (HASPIN): 7.214%
- 1 µM GBD00276 (ibrutinib), % inhibition (HIPK1): 7.799%
- 1 µM GBD00276 (ibrutinib), % inhibition (IRAK4): 1.168%
- 1 µM GBD00276 (ibrutinib), % inhibition (ITK): 38.79%
- 1 µM GBD00276 (ibrutinib), % inhibition (KSR2): 3.265%
- 1 µM GBD00276 (ibrutinib), % inhibition (MAK): 9.929%
- 1 µM GBD00276 (ibrutinib), % inhibition (MAP3K14): -11.44%
- 1 µM GBD00276 (ibrutinib), % inhibition (MAP3K3): 0.2657%
- 1 µM GBD00276 (ibrutinib), % inhibition (MAP3K6/ASK2): 25.05%
- 1 µM GBD00276 (ibrutinib), % inhibition (MAPK11/P38B): -0.6084%
- 1 µM GBD00276 (ibrutinib), % inhibition (MAPK3/ERK1): 2.161%
- 1 µM GBD00276 (ibrutinib), % inhibition (MAPKAPK5/MK5): 3.643%
- 1 µM GBD00276 (ibrutinib), % inhibition (MARK3): 4.514%
- 1 µM GBD00276 (ibrutinib), % inhibition (MUSK): 8.501%
- 1 µM GBD00276 (ibrutinib), % inhibition (NTRK2/TRKB): 21.53%
- 1 µM GBD00276 (ibrutinib), % inhibition (PAK1): 16.51%
- 1 µM GBD00276 (ibrutinib), % inhibition (PAK2): 28.3%
- 1 µM GBD00276 (ibrutinib), % inhibition (PKN1): -1.102%
- 1 µM GBD00276 (ibrutinib), % inhibition (PLK1): 6.704%
- 1 µM GBD00276 (ibrutinib), % inhibition (PLK4): 7.389%
- 1 µM GBD00276 (ibrutinib), % inhibition (PRKD3): 1.376%
- 1 µM GBD00276 (ibrutinib), % inhibition (PRKG1): -6.849%
- 1 µM GBD00276 (ibrutinib), % inhibition (SLK): -2.298%
- 1 µM GBD00276 (ibrutinib), % inhibition (SRPK3/MSSK1): 1.885%
- 1 µM GBD00276 (ibrutinib), % inhibition (STK3/MST2): -10.97%
- 1 µM GBD00276 (ibrutinib), % inhibition (TNK2/ACK): 31.95%
- 1 µM GBD00276 (ibrutinib), % inhibition (ULK1): -8.778%
- 1 µM GBD00276 (ibrutinib), % inhibition (ZNF33A/ZAK): -3.326%
